In US6426352B1, “Sulfonamide inhibitors of farnesyl-protein transferase” (Schering Corporation, priority 1997, dated 2002):

Legend:
[1] = target: T1, partially purified rat brain farnesyl protein transferase (FPT) (Rattus norvegicus, UniProt Q02293+Q04631); assay: In vitro enzyme assay: inhibition of Ras-CVLS farnesylation by farnesyl protein transferase (H-ras FPT); assay type: biochemical
T1 construct: partially purified rat brain farnesyl protein transferase (FPT); from tissue; host or cells: rat brain
Protocol: 1. In vitro enzyme assays: FPT IC50 (inhibition of farnesyl protein transferqase, in vitro enzyme assay) are determined by the methods disclosed in […] or WO 95/10516.

[2] = system: Ras processing in COS cells; assay: Cell-based assay: COS cells activity, inhibition of Ras processing
Protocol: 2. Cell-based assay. COS IC50 values refer to the COS cells activity inhibition of Ras processing, are determined by the methods disclosed in […] or WO 95/10516.

Row | IC50 [1] | melting point | SMILES | IC50 [2]
1 | 7 nM | 216 to 217 °C | CS(=O)(=O)N1CCC(C2c3ncc(Br)cc3CCc3cc(Cl)cc(Br)c32)CC1 (single isomer, unassigned; (+)) [Example 4, (+)-4-(3,10-Dibromo-8-chloro-11-dihydro-5H-benzo[5,6]cyclohepta[1,2-b]pyridin-11-yl)-1-(methylsulfonyl)pipiridine] | 15 nM
2 | 8 nM | 160 to 163 °C | CS(=O)(=O)N1CCC(C2c3ncc(Br)cc3CCc3cc(Cl)cc(Cl)c32)CC1 (single isomer, unassigned; (+)) [Example 1, (+)-4-(3-Bromo-8,10-dichloro-6,11-dihydro-5H-benzo[5,6]cyclohepta[1,2-b]pyridin-11-yl)-1-(methylsulfonyl)pipiridine] | 420 nM
3 | 110 nM | 203 to 205 °C | CC(C)S(=O)(=O)N1CCC(C2c3ncc(Br)cc3CCc3cc(Cl)cc(Br)c32)CC1 (single isomer, unassigned; (+)) [Example 7, (+)-4-(3,10-Dibromo-8-chloro-11-dihydro-5H-benzo[5,6]cyclohepta[1,2-b]pyridin-11-yl)-1-(isopropylsulfonyl)pipiridine] | –
4 | 164 nM | 202 to 203 °C | CN(C)S(=O)(=O)N1CCC(C2c3ncc(Br)cc3CCc3cc(Cl)cc(Cl)c32)CC1 (single isomer, unassigned; (+)) [Example 2, (+)-4-(3-Bromo-8,10-dichloro-6,11-dihydro-5H-benzo[5,6,]cyclohepta[1,2-b]pyridin-11-yl)-N-N-dimethyl-1-piperidinesulfonamide] | –
5 | 26 nM | 133 to 134 °C | NS(=O)(=O)N1CCC(C2c3ncc(Br)cc3CCc3cc(Cl)cc(Cl)c32)CC1 (single isomer, unassigned; (+)) [Example 3, (+)-4-(3-Bromo-8,10-dichloro-6,11-dihydro-5H-benzo[5,6]cyclohepta[1,2-b]pyridin-11-yl)-1-(aminosulfonyl)piperidine] | –
6 | 15.4 nM | 202 to 203 °C | CCS(=O)(=O)N1CCC(C2c3ncc(Br)cc3CCc3cc(Cl)cc(Br)c32)CC1 (single isomer, unassigned; (+)) [Example 5, (+)-4-(3,10-Dibromo-8-chloro-11-dihydro-5H-benzo[5,6]cyclohepta[1,2-b]pyridin-11-yl)-1-(ethylsulfonyl)pipiridine] | –
7 | 179 nM | – | O=S(=O)(c1ccccc1)N1CCC([C@H]2c3ncc(Br)cc3CCc3cc(Cl)cc(Br)c32)CC1 [Example 12, (+)-4-(3,10-Dibromo-8-chloro-6,11-dihydro-5H-benzo[5,6]cyclohepta[1,2-b]pyridin-11(R)-yl)-1-(phenylsulfonyl)pipiridine] | –
8 | 32 nM | – | C=CS(=O)(=O)N1CCC(C2c3ncc(Br)cc3CCc3cc(Cl)cc(Br)c32)CC1 (single isomer, unassigned; (+)) [Example 11, (+)-4-(3,10-Dibromo-8-chloro-11-dihydro-5H-benzo[5,6]cyclohepta[1,2-b]pyridin-11-yl)-1-(vinylsulfonyl)pipiridine] | –
9 | 276 nM | – | O=S(=O)(c1ccc(-c2ccon2)s1)N1CCC([C@H]2c3ncc(Br)cc3CCc3cc(Cl)cc(Br)c32)CC1 [Example 14, (+)-4-(3,10-Dibromo-8-chloro-6,11-dihydro-5H-benzo[5,6]cyclohepta[1,2-b]pyridin-11(R)-yl)-1-[(5-(3-isoxazolyl)-2-thienyl]sulfonyl]pipiridine] | –
10 | 89 nM | 174 to 175 °C | O=S(=O)(CC(F)(F)F)N1CCC(C2c3ncc(Br)cc3CCc3cc(Cl)cc(Br)c32)CC1 (single isomer, unassigned; (+)) [Example 10, (+)-4-(3,10-Dibromo-8-chloro-11-dihydro-5H-benzo[5,6]cyclohepta[1,2-b]pyridin-11-yl)-1-(trifluoroethylsulfonyl)pipiridine] | –
11 | 32 nM | 97 to 98 °C | CCCS(=O)(=O)N1CCC(C2c3ncc(Br)cc3CCc3cc(Cl)cc(Br)c32)CC1 (single isomer, unassigned; (+)) [Example 6, (+)-4-(3,10-Dibromo-8-chloro-11-dihydro-5H-benzo[5,6]cyclohepta[1,2-b]pyridin-11-yl)-1-(propylsulfonyl)pipiridine] | –
12 | 320 nM | 73 to 74 °C | CCCCS(=O)(=O)N1CCC(C2c3ncc(Br)cc3CCc3cc(Cl)cc(Br)c32)CC1 (single isomer, unassigned; (+)) [Example 8, (+)-4-(3,10-Dibromo-8-chloro-11-dihydro-5H-benzo[5,6]cyclohepta[1,2-b]pyridin-11-yl)-1-(butylsulfonyl)pipiridine] | –
13 | 85 nM | – | Cn1cnc(S(=O)(=O)N2CCC([C@H]3c4ncc(Br)cc4CCc4cc(Cl)cc(Br)c43)CC2)c1 [Example 13, (+)-4-(3,10-Dibromo-8-chloro-6,11-dihydro-5H-benzo[5,6]cyclohepta[1,2-b]pyridin-11(R)-yl)-1-[(1-methyl-1H-imidazol-4-yl)sulfonyl]pipiridine] | –
14 | 34 nM | 111 to 112 °C | O=S(=O)(N1CCC(C2c3ncc(Br)cc3CCc3cc(Cl)cc(Br)c32)CC1)C(F)(F)F (single isomer, unassigned; (+)) [Example 9, (+)-4-(3,10-Dibromo-8-chloro-11-dihydro-5H-benzo[5,6]cyclohepta[1,2-b]pyridin-11-yl)-1-(trifluoromethylsulfonyl)pipiridine] | –
